Test results published in article PMC5681660, “Reduced hepatitis B and D viral entry using clinically applied drugs as novel inhibitors of the bile acid transporter NTCP” (Scientific Reports, 2017).
Structures can show the parent of a compound that is named as a salt. Where two headings read alike, the source gives them in different places.

How the values were obtained:
human NTCP [1] = molecular target: T1, human NTCP (Homo sapiens, UniProt Q14973); assay: Screening fluorescent competitive Myrcludex B-FITC binding assay (96-well, 10 µM drug)
T1 sequence (Q14973 1-349): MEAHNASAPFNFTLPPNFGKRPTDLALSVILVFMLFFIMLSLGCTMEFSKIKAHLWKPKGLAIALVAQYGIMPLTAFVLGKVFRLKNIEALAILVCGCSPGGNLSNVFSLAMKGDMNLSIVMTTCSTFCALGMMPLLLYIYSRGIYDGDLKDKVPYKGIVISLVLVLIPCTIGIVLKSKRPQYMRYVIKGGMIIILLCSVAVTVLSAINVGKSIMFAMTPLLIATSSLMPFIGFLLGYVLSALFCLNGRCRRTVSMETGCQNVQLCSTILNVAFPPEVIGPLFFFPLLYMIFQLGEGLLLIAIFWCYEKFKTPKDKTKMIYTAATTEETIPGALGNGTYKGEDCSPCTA

human NTCP [2] = molecular target: T1, human NTCP; assay: Screening taurocholate uptake assay (96-well, [14C]taurocholate, 10 µM drug)
[3] = Prestwick library screen, 10 µM drug, B-score of Myrcludex B-FITC binding
[4] = Prestwick library screen, 10 µM drug, B-score of taurocholate uptake
[5] = combined ranking from functional and binding assay B-scores
[6] = Prestwick library screen, Myrcludex B-FITC binding, 10 µM drug
[7] = Prestwick library screen, taurocholate uptake, 10 µM drug
[8] = ranking score beside the functional and binding assay B-scores of the screen
[9] = screen, 10 µM drug, Myrcludex B-FITC binding
[10] = combined ranking from functional and binding screening assays
[11] = screen, 10 µM drug, taurocholate uptake

Row | Compound | B-score binding assay (human NTCP [1]; [3]) | B-score functional assay (human NTCP [2]; [4]) | Ranking score (human NTCP [2]; [5]) | B-score binding assay (human NTCP [1]; [9]) | Ranking score (human NTCP [2]; [10]) | B-score functional assay (human NTCP [2]; [11]) | also measured
1 | Cc1ccccc1N1C(=O)c2cc(S(N)(=O)=O)c(Cl)cc2NC1C (stereo not drawn) [Metolazone] | 1.32 | 0.67 | 1031.7 |  |  |  | 
2 | CC(=O)Nc1c(I)c(C(=O)N[C@H]2C(O)O[C@H](CO)[C@@H](O)[C@@H]2O)c(I)c(N(C)C(C)=O)c1I (stereo partly drawn) [Metrizamide] |  |  |  |  |  |  | B-score binding assay (human NTCP [1]; [6]): 0.138; B-score functional assay (human NTCP [2]; [7]): 0.395; Ranking score (human NTCP [2]; [8]): 816.081
3 | Cc1ncc([N+](=O)[O-])n1CCO [Metronidazole] | 0 | 1.996 | 878.042 |  |  |  | 
4 | CC(C)(C(=O)c1cccnc1)c1cccnc1 [Metyrapone] |  |  |  |  |  |  | B-score binding assay (human NTCP [1]; [6]): -0.063; B-score functional assay (human NTCP [2]; [7]): 0.78; Ranking score (human NTCP [2]; [8]): 759.235
5 | C[C@@]1(O)CCOC(=O)C1 [Mevalonic-D, L acid lactone] | 0.161 | 0.673 | 868.822 |  |  |  | 
6 | CC[C@H](C)C(=O)O[C@H]1CCC=C2C=C[C@H](C)[C@H](CC[C@@H]3C[C@@H](O)CC(=O)O3)[C@H]21 [Mevastatin] |  |  |  | 1.164 | 355.331 | -2.175 | 
7 | CN1CCN2c3ccccc3Cc3ccccc3C2C1.Cl (stereo not drawn) [Mianserine hydrochloride] |  |  |  |  |  |  | B-score binding assay (human NTCP [1]; [6]): 0.761; B-score functional assay (human NTCP [2]; [7]): 0.041; Ranking score (human NTCP [2]; [8]): 825.955
8 | COc1ccc(OC)c(C(O)CNC(=O)CN)c1 (stereo not drawn) [Midodrine hydrochloride] |  |  |  |  |  |  | B-score binding assay (human NTCP [1]; [6]): 2.033; B-score functional assay (human NTCP [2]; [7]): -0.28; Ranking score (human NTCP [2]; [8]): 735.356
9 | CCN(CC)C(=O)C1(c2ccccc2)CC1CN.Cl (stereo not drawn) [Milnacipran hydrochloride] | 0.152 | 1.822 | 955.465 |  |  |  | 
10 | Cc1[nH]c(=O)c(C#N)cc1-c1ccncc1 [Milrinone] | 0.945 | 0.094 | 877.639 |  |  |  | 
11 | Cc1cc(-c2ccccc2)nnc1NCCN1CCOCC1 [Minaprine dihydrochloride] |  |  |  |  |  |  | B-score binding assay (human NTCP [1]; [6]): -0.039; B-score functional assay (human NTCP [2]; [7]): 1.278; Ranking score (human NTCP [2]; [8]): 814.509
12 | CN(C)c1ccc(O)c2c1C[C@H]1C[C@H]3[C@H](N(C)C)C(O)=C(C(N)=O)C(=O)[C@@]3(O)C(O)=C1C2=O [Minocycline hydrochloride] |  |  |  |  |  |  | B-score binding assay (human NTCP [1]; [6]): 0.626; B-score functional assay (human NTCP [2]): 0.089; Ranking score (human NTCP [2]; [8]): 838.821
13 | Clc1ccc(C(c2ccccc2Cl)C(Cl)Cl)cc1 (stereo not drawn) [Mitotane] |  |  |  | 2.009 | 352.681 | -2.371 | 
14 | O=C1c2c(O)ccc(O)c2C(=O)c2c(NCCNCCO)ccc(NCCNCCO)c21 [Mitoxantrone dihydrochloride] |  |  |  |  |  |  | B-score binding assay (human NTCP [1]; [6]): -0.161; B-score functional assay (human NTCP [2]; [7]): 4.449; Ranking score (human NTCP [2]; [8]): 807.326
15 | CN(c1nccc(=O)[nH]1)C1CCN(c2nc3ccccc3n2Cc2ccc(F)cc2)CC1 [Mizolastine] | 0.089 | 0.906 | 877.518 |  |  |  | 
16 | O=C(NCCN1CCOCC1)c1ccc(Cl)cc1 [Moclobemide] |  |  |  |  |  |  | B-score binding assay (human NTCP [1]; [6]): -0.149; B-score functional assay (human NTCP [2]; [7]): 1.399; Ranking score (human NTCP [2]; [8]): 766.363
17 | CCc1c(C)[nH]c2c1C(=O)C(CN1CCOCC1)CC2 (stereo not drawn) [Molindone hydrochloride] |  |  |  | 0.009 | 412.337 | -0.958 | 
18 | Cc1ccsc1/C=C/C1=NCCCN1C [Morantel tartrate] |  |  |  | -0.484 | 381 | -0.483 | 
19 | Cl.N=C(N=C(N)N)N1CCOCC1 [Moroxidine hydrochloride] | 1.496 | 1.373 | 1132.99 |  |  |  | 
20 | COc1c(N2C[C@@H]3CCCN[C@@H]3C2)c(F)cc2c(=O)c(C(=O)O)cn(C3CC3)c12 [Moxifloxacin] |  |  |  | -1.402 | 388.165 | 0.4 | 
21 | CC(=O)Oc1cc(C(C)C)c(OCCN(C)C)cc1C.Cl [Moxisylyte hydrochoride] |  |  |  | -0.183 | 375.319 | -0.84 | 
22 | COc1nc(C)nc(Cl)c1N=C1NCCN1 [Moxonidine] |  |  |  | -0.494 | 427.083 | -0.211 | 
23 | COc1ccc2cc(CCC(C)=O)ccc2c1 [Nabumetone] |  |  |  | -1.377 | 286.691 | -0.236 | 

Row | Compound | B-score binding assay (human NTCP [1]; [3]) | B-score functional assay (human NTCP [2]; [4]) | Ranking score (human NTCP [2]; [5]) | B-score binding assay (human NTCP [1]; [9]) | Ranking score (human NTCP [2]; [10]) | B-score functional assay (human NTCP [2]; [11]) | also measured
24 | CC(C)(C)NCC(O)COc1cccc2c1CC(O)C(O)C2 (stereo not drawn) [Nadolol] | 1.627 | 0.292 | 986.853 |  |  |  | 
25 | CN(C/C=C/c1ccccc1)Cc1cccc2ccccc12 [Naftifine hydrochloride] |  |  |  |  |  |  | B-score binding assay (human NTCP [1]; [6]): -0.234; B-score functional assay (human NTCP [2]; [7]): 0.726; Ranking score (human NTCP [2]; [8]): 685.775
26 | COc1ccccc1N1CCN(CC(O)COc2cccc3ccccc23)CC1.Cl.Cl (stereo not drawn) [Naftopidil dihydrochloride] |  |  |  | 1.879 | 412.912 | -1.853 | 
27 | Oc1ccc2c3c1O[C@H]1[C@@H](O)CC[C@@]4(O)[C@@H](C2)N(CC2CCC2)CC[C@]314 [Nalbuphine hydrochloride] |  |  |  |  |  |  | B-score binding assay (human NTCP [1]): -0.132; B-score functional assay (human NTCP [2]): -1.445; Ranking score (human NTCP [2]): 312.49
28 | C=CCN1CC[C@]23c4c5ccc(O)c4O[C@H]2C(=O)CC[C@@]3(O)[C@H]1C5 [Naloxone hydrochloride] |  |  |  |  |  |  | B-score binding assay (human NTCP [1]): 0; Ranking score (human NTCP [2]; combined ranking of functional and binding screening assays): 578.749; B-score functional assay (human NTCP [2]; screening taurocholate uptake, 10 µM drug): -0.111
29 | C[C@]12CC[C@H]3[C@@H](CCC4=CC(=O)CC[C@@H]43)[C@@H]1CC[C@@H]2O [Nandrolone] |  |  |  |  |  |  | B-score binding assay (human NTCP [1]): 0.982; B-score functional assay (human NTCP [2]): 0.05; Ranking score (human NTCP [2]): 852.366
30 | COc1ccc2cc([C@H](C)C(=O)O)ccc2c1 [Naproxen] |  |  |  | -0.298 | 422.428 | -0.433 | 
31 | CC(C)[C@H]1CC[C@H](C(=O)N[C@H](Cc2ccccc2)C(=O)O)CC1 [Nateglinide] |  |  |  | 0.322 | 461.181 | -1.02 | 
32 | CN1CCOC(c2ccccc2)c2ccccc2C1 (stereo not drawn) [Nefopam hydrochloride] | 0.293 | 0.705 | 906.685 |  |  |  | 
33 | NC[C@@H]1O[C@H](O[C@H]2[C@@H](O)[C@H](O[C@@H]3[C@@H](O)[C@H](N)C[C@H](N)[C@H]3O[C@H]3O[C@H](CN)[C@@H](O)[C@H](O)[C@H]3N)O[C@@H]2CO)[C@H](N)[C@@H](O)[C@@H]1O.O=S(=O)(O)O [Neomycin sulfate] | 0.524 | 0.497 | 912.995 |  |  |  | 
34 | CN(C)C(=O)Oc1cccc([N+](C)(C)C)c1 [Neostigmine bromide] |  |  |  |  |  |  | B-score binding assay (human NTCP [1]; [6]): 0.229; B-score functional assay (human NTCP [2]; [7]): -0.02; Ranking score (human NTCP [2]; [8]): 703.343
35 | O=C(O)c1cccnc1 [Niacin] |  |  |  |  |  |  | B-score binding assay (human NTCP [1]; [6]): 0.206; B-score functional assay (human NTCP [2]; [7]): 0.004; Ranking score (human NTCP [2]; [8]): 716.877
36 | O=C(CCNNC(=O)c1ccncc1)NCc1ccccc1 [Nialamide] | 0.697 | 0.331 | 907.486 |  |  |  | 
37 | COC(=O)C1=C(C)NC(C)=C(C(=O)OCCN(C)Cc2ccccc2)C1c1cccc([N+](=O)[O-])c1 (stereo not drawn) [Nicardipine hydrochloride] |  |  |  | -1.032 | 378.616 | -0.022 | 
38 | NC(=O)c1cccnc1 [Nicotinamide] | 0.079 | 1.452 | 911.172 |  |  |  | 
39 | O=C(O)c1cccnc1Nc1cccc(C(F)(F)F)c1 [Niflumic acid] |  |  |  |  |  |  | B-score binding assay (human NTCP [1]; [6]): -0.054; B-score functional assay (human NTCP [2]; [7]): 0.166; Ranking score (human NTCP [2]; [8]): 675.036
40 | O=C(N/N=C/c1ccc([N+](=O)[O-])o1)c1ccc(O)cc1 [Nifuroxazide] | 0.661 | 2.774 | 1088.47 |  |  |  | 
41 | CC1CS(=O)(=O)CCN1/N=C/c1ccc([N+](=O)[O-])o1 (stereo not drawn) [Nifurtimox] |  |  |  | -0.222 | 381.366 | -0.767 | 
42 | CC1(C)NC(=O)N(c2ccc([N+](=O)[O-])c(C(F)(F)F)c2)C1=O [Nilutamide] | 0.756 | 5.352 | 1119.7 |  |  |  | 
43 | COC(=O)C1=C(C#N)NC(C)=C(C(=O)OC(C)C)C1c1cccc([N+](=O)[O-])c1 (stereo not drawn) [Nilvadipine] |  |  |  | 2.397 | 384.686 | -2.135 | 
44 | CS(=O)(=O)Nc1ccc([N+](=O)[O-])cc1Oc1ccccc1 [Nimesulide] |  |  |  | 0.652 | 428.869 | -1.398 | 
45 | O=C1NCCN1c1ncc([N+](=O)[O-])s1 [Niridazole] |  |  |  | -0.358 | 301.174 | -1.225 | 
46 | CNCCC(Oc1ccccc1OC)c1ccccc1 (stereo not drawn) [Nisoxetine hydrochloride] |  |  |  |  |  |  | B-score binding assay (human NTCP [1]): -0.726; B-score functional assay (human NTCP [2]): -0.598; Ranking score (human NTCP [2]): 324.321
